The text below walks through data of PubChem BioAssay (NCI).

Common to all, as to experiment: NCI-60 cell line screen, 48 h
Assay [1] deals with ACHN renal.
Assay [2] deals with CCRF-CEM leukemia.
In assay [3] the test system is HCT-15 colon.
In assay [4] the test system is HS 578T breast.
For assay [5], the system named is IGROV1 ovarian.
In assay [6] the test system is KM12 colon.
Assay [7] concerns MALME-3M melanoma.
The test system of assay [8] is NCI-H522 lung.
Assay [9] has as its system OVCAR-3 ovarian.
Assay [10] deals with OVCAR-8 ovarian.
The test system of assay [11] is SK-MEL-2 melanoma.
The subject of assay [12] is SK-MEL-5 melanoma.
The subject of assay [13] is SK-OV-3 ovarian.
The subject of assay [14] is TK-10 renal.
The test system of assay [15] is UACC-257 melanoma.
Assay [16] has as its system UO-31 renal.
The test system of assay [17] is HOP-92 NSCLC.
Assay [18] relates to LOX IMVI melanoma.
Assay [19] deals with SK-MEL-28 melanoma.
The subject of assay [20] is SW-620 colon.

SMILES strings stand for the structures.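 These data come from cells grown in 96-well plates and exposed to compound for 48 hours at five concentrations. TGI marks complete inhibition of growth.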 Bounds are passed on as bounds.

In the case of `Cc1cc2nnn(C3CCCCO3)c2cc1C` (stereo not drawn), the TGI in assay [1], in assay [2], in assay [3], in [4], in [5] and in assay [6] was greater than 100 µM in each case. Besides, the TGI in assay [7], in assay [8], in assay [9], in assay [10], in assay [11] and in assay [12] was greater than 100 µM each time. The TGI in assay [13], in [14], in assay [15] and in [16] was greater than 100 µM throughout.

For the compound `C/C=C1/C=CC2c3[nH]c4ccccc4c3CCN2C1` (stereo not drawn), the TGI in [1], in assay [2], in assay [3], in assay [17], in assay [5] and in assay [6] was greater than 400 µM in each case. The TGI in assay [18], in assay [7], in assay [8], in assay [9], in [10] and in assay [11] was greater than 400 µM in each case. Moreover, the TGI in assay [19], in assay [12], in assay [13], in assay [20], in assay [14] and in assay [15] was greater than 400 µM in each case.

Consider `COC(=O)N/N=c1\cc(C(=O)Nc2ccc(C)c(C)c2)oc2cc(O)ccc12`, for which the TGI in assay [1], in assay [2], in assay [3], in assay [17], in [5] and in assay [6] was greater than 100 µM each time. The TGI in assay [18], in assay [7], in [8], in assay [9], in [10] and in assay [11] was greater than 100 µM throughout. In addition, the TGI in assay [19], in [12], in [13], in assay [20], in assay [14] and in assay [15] was greater than 100 µM each time. This compound gave a TGI in assay [16] greater than 100 µM.

On to `Cc1cc(C=O)c2c(=O)c3c(O)ccc(/C=C/C(C)C)c3oc2c1`, for which the TGI was greater than 100 µM in assay [1]; 99.6 µM in [3]; greater than 100 µM in [17]; greater than 100 µM in assay [5]; greater than 100 µM in assay [6]; greater than 100 µM in assay [7]. Also, the TGI in assay [8] is 74 µM; in assay [9], greater than 100 µM; in [10], greater than 100 µM; in assay [11] it was greater than 100 µM; in assay [19], greater than 100 µM; in assay [12] it was greater than 100 µM. In addition, the TGI in assay [20], in [14], in assay [15] and in [16] was greater than 100 µM in each case.

`CC1(c2ccc(Cl)cc2)C=C(c2ccc(Cl)cc2)C(C#N)=C(C(C#N)C#N)N1` (stereo not drawn): the TGI is 30.5 µM in [1]; greater than 100 µM in assay [2]; 30.4 µM in [3]; 29.4 µM in [4]; 25.6 µM in assay [5]; 38.6 µM in [6]. The TGI in [18] was 32.3 µM; in assay [7], 29.1 µM; in [9], 21.3 µM; in [10], 30.7 µM; in assay [11] it was 47.1 µM; in assay [19], 66.6 µM. In addition, the TGI in assay [12] is 28.2 µM; in [13] it was 30.8 µM; in assay [20] it was greater than 100 µM; in assay [14], 33.8 µM; in assay [15], 37.3 µM; in assay [16], 30.5 µM.

With `CCOc1ccc(OP2(=O)NC(=O)C=C(C)N2)cc1` (stereo not drawn), the TGI in assay [1], in assay [2], in assay [3], in [17], in [5] and in assay [6] was greater than 100 µM in each case. Also, the TGI in assay [18], in [7], in [8], in [9], in assay [10] and in assay [11] was greater than 100 µM in each case. The TGI in [19], in [12], in assay [13], in assay [20], in assay [14] and in assay [15] was greater than 100 µM each time. The compound also had a TGI in assay [16] greater than 100 µM.

On to `O=C1/C(=C/c2ccc(Br)s2)NC(=S)N1CN1CCCCC1`, for which the TGI in assay [1] is greater than 100 µM; in [3], greater than 100 µM; in assay [4], greater than 100 µM; in assay [5] it was greater than 100 µM; in assay [6] it was greater than 100 µM; in [18], 52 µM. Moreover, the TGI in assay [7] is greater than 100 µM; in assay [8] it was 83.1 µM; in [9], 59.6 µM; in assay [10], greater than 100 µM; in assay [11], 37.1 µM; in assay [19], greater than 100 µM. Besides, the TGI in [12] is 23.8 µM; in assay [20], greater than 100 µM; in assay [14] it was greater than 100 µM; in assay [15], greater than 100 µM; in [16], 76.3 µM.

Take `CCOC(=O)c1cn(-c2ccc([N+](=O)[O-])cc2)c(=S)n2c1nc1ccccc12`: the TGI in assay [1] was greater than 100 µM; in [2] it was greater than 100 µM; in assay [3], greater than 100 µM; in [17], 57.1 µM; in [5], greater than 100 µM; in assay [6], greater than 100 µM. Further, the TGI is greater than 100 µM in assay [18]; greater than 100 µM in assay [9]; greater than 100 µM in assay [10]; 76.7 µM in [11]; greater than 100 µM in assay [19]; greater than 100 µM in [12]. Moreover, the TGI in [20] is greater than 100 µM; in [15] it was greater than 100 µM; in assay [16], 4.64 µM.
